Assay results: US20100068812A1, “METHOD FOR INCREASING TRANSFORMATION EFFICIENCY IN PLANTS, COMPRISING COCULTURE STEP FOR CULTURING PLANT TISSUE WITH COCULTURE MEDIUM CONTAINING 3, 6-DICHLORO-O-ANISIC ACID” (Japan Tobacco Inc., priority 2007, published 2010)

Columns and labels:
[1] = system: Maize (variety: A188) immature embryos; test: Effect of auxin type in coculture medium on Agrobacterium-mediated transformation efficiency (GUS-positive plants / inoculated immature embryos); type: cell-based; settings: for transformation efficiency relative to control (2,4-D), in words / transformation efficiency: auxin 1.5 mg/l in coculture medium, Agrobacterium LBA4404 (pSB131); for transformation efficiency: coculture in the dark at 25° C. for 7 days, 33 to 35 immature embryos per test
Text: (§1) Transformation efficiency can be determined by any calculation method commonly used by those skilled in the art, for example, can be determined from a value calculated by dividing the number of transformed plants by the number of Agrobacterium-inoculated explants.
(§2) FIG. 1 is a graph showing the effect of auxin type in a coculture medium on transformation efficiency in maize. 33 to 35 immature embryos were provided for each test. The vertical axis represents the transformation efficiency (calculated by dividing the number of GUS-positive plants obtained in each test by the number of inoculated immature embryos), while the horizontal axis represents the type of auxin contained in the coculture medium. The auxin concentration in the coculture medium was set to 1.5 mg/l for each test.
Maize (variety: A188) immature embryos (1.0 to 1.5 mm in size) at 7 to 14 days after pollination were aseptically collected and washed once with LS-inf liquid medium (Non-patent Publication No. 11), followed by pretreatment (thermal treatment at 46° C. for 3 minutes and centrifugation at 15,000 rpm for 10 minutes) to increase gene transfer efficiency. In LS-inf liquid medium containing 100 μM acetosyringone, Agrobacterium strain LBA4404 (pSB131) (Non-patent Publication No. 11) was suspended at about 1.0×10^9 cfu/ml to prepare an inoculum. The thermally-treated and centrifuged immature embryos were mixed with the inoculum, vortexed for 30 seconds, and then allowed to stand for 5 minutes at room temperature. The Agrobacterium-inoculated immature embryos were placed, with their embryonic discs facing up, onto a coculture medium containing 2,4,5-T (2,4,5-trichlorophenoxyacetic acid), picloram (4-amino-3,5,6-trichloropicolinic acid), TIBA (2,3,5-triiodobenzoic acid) or dicamba at a concentration of 1.5 mg/l in IS-AS medium (Non-patent Publication No. 11; solidified with 8 g/l agarose) which had been prepared to exclude 2,4-D and contain 5 μM AgNO3 and 5 μM CuSO4. A control medium was prepared to contain 5 μM AgNO3 and 5 μM CuSO4 in LS-AS medium (solidified with 8 g/l agarose).
The immature embryos cultured in the dark at 25° C. for 7 days were placed onto LSD1.5 medium (Non-patent Publication No. 11) containing 5 μM AgNO3, 5 mg/l phosphinothricin (PPT), 250 mg/l carbenicillin and 100 mg/l cefotaxime, and then cultured in the dark at 25° C. for 10 days. The immature embryos were transferred to the same medium, except that the PPT concentration was set to 10 mg/l, and cultured under the same conditions for 3 weeks. The grown calli were excised with a surgical knife, placed onto a fresh medium of the same composition, and cultured under the same conditions for 3 weeks. The grown calli were excised, placed onto LSZ medium (Non-patent Publication No. 11) containing 10 μM CuSO4 and 5 mg/l PPT, and cultured in the light at 25° C. for about 2 weeks. Along with determining the number of immature embryos which regenerated into whole plants, leaves of the regenerated plants were partially excised, immersed in 0.1 M phosphate buffer (pH 6.8) containing 0.1% Triton X-100 and allowed to stand at 37° C. for 1 hour. The phosphate buffer was removed and then replaced with another phosphate buffer containing 1.0 mM 5-bromo-4-chloro-3-indolyl-β-D-glucuronic acid (X-gluc) and 20% methanol. After incubation at 37° C. for 24 hours, GUS gene expression was examined.

maize immature embryos = settings: 15 μM dicamba vs 4.5 μM 2,4-D; cited from earlier work
[2] = system: immature embryos (variety: A188); test: Effect of dicamba and 2,4-D in coculture medium on transformation efficiency (drop inoculation); type: cell-based, Maize; settings: for transformation efficiency: auxin 1.5 mg/l in coculture medium, Agrobacterium LBA4404 (U0009B) with hydroxyapatite, 25 to 26 immature embryos per test
Text: as §1
as §2, with “FIG. 3” for “FIG. 1”, “in maize (drop inoculation). 25” for “in maize. 33”, “to 26” for “to 35”
The vector U0009B shown in FIG. 2 and SEQ ID NO: 1 was constructed by adding necessary elements to a vector having pSB11 (Non-patent Publication No. 27) as a skeletal structure. An inoculum (1 ml) of Agrobacterium strain LBA4404 (U0009B) prepared in the same manner as shown in Example 1 was supplemented with about 80 mg of hydroxyapatite (Bio-Rad). […] A control medium was prepared to contain 5 μM AgNO3 and 5 μM CuSO4 in LS-AS medium (solidified with 8 g/l agarose). After shaking with a vortex mixer to ensure a uniformly dispersed state of hydroxyapatite in the inoculum, 5 μl of the inoculum was added dropwise onto the immature embryos. After the inoculum added dropwise was dried, the immature embryos were transferred to another site on the same medium. After the culture container was sealed, coculture was performed in the dark at 25° C. for 7 days. The cocultured immature embryos were cultured in the same manner as shown in Example 1 to obtain regenerated plants, along with examining GUS gene expression in leaves of the regenerated plants.

maize = settings: 15 μM dicamba vs 6.75 μM 2,4-D; media also differ in other components (silver nitrate); cited from earlier work

| SMILES | transformation efficiency relative to control (2,4-D), in words [1] | transformation efficiency [1] | transformation efficiency [2] | other results |
| --- | --- | --- | --- | --- |
| Nc1c(Cl)c(Cl)nc(C(=O)O)c1Cl [picloram, 4-amino-3,5,6-trichloropicolinic acid] | lower than that of the control |  |  |  |
| O=C(O)c1cc(I)cc(I)c1I [TIBA, 2,3,5-triiodobenzoic acid] | produced no transformed plant |  |  |  |
| O=C(O)COc1cc(Cl)c(Cl)cc1Cl [2,4,5-T, 2,4,5-trichlorophenoxyacetic acid] | lower than that of the control |  |  |  |
| COc1c(Cl)ccc(Cl)c1C(=O)O [dicamba, 3,6-dichloro-o-anisic acid] |  | 27.3% | 28.0% | formation rate of calli having regeneration ability, compared to 2,4-D (maize immature embryos): increased; increase in the transformation efficiency compared to the conventional method using 2,4-D ([1]; dicamba 1.5 mg/l in coculture medium, 27.3/20.6): 1.33 fold; increase in the transformation efficiency compared to the conventional method using 2,4-D ([2]; dicamba 1.5 mg/l, 28.0/11.5): 2.43 fold; transformation efficiency, dicamba medium vs 2,4-D medium (maize): higher |
| O=C(O)COc1ccc(Cl)cc1Cl [2,4-D, 2,4-dichlorophenoxyacetic acid] |  | 20.6% | 11.5% |  |
